This is an account of results in patent publication US20170348343A1, “METHODS OF TREATING HEPATITIS E VIRAL INFECTION” (Gilead Pharmasset LLC, priority 2016, published 2017).

This assay relates to HEV. Kind of assay: HEV RNA test in a human subject with HEV infection (case, Example 1). The assay is classed as in vivo. As to the method: A human subject was identified as having AIDS, Kaposi's sarcoma, non-Hodgkin's lymphoma, compensated cirrhosis, and a history of alcoholism. An HEV RNA test of the subject was conducted, and the result was positive, at approximately 20,000 IU/mL. The subject was started on ribavirin monotherapy, wherein ribavirin was administered to the subject at 800 mg once per day. […] The subject was then started on a treatment wherein ribavirin administration was continued at 800 mg per day and sofosbuvir was also administered at 400 mg per day. After four weeks of such treatment, the subject's HEV RNA levels were below the lower limit of detection of about 25 IU/mL.

Each structure is given as a SMILES string. Some results are limits rather than exact numbers.

Consider `NC(=O)c1ncn([C@@H]2O[C@H](CO)[C@@H](O)[C@H]2O)n1` [ribavirin], for which the HEV status entry (ribavirin monotherapy 800 mg once per day for over one year, human subject, baseline HEV RNA approximately 20,000 IU/mL) was “remained HEV-positive”. In the case of `CC(C)OC(=O)[C@H](C)N[P@](=O)(OC[C@H]1O[C@@H](n2ccc(=O)[nH]c2=O)[C@](C)(F)[C@@H]1O)Oc1ccccc1` [sofosbuvir, (S)-isopropyl 2-(((S)-(((2R,3R,4R,5R)-5-(2,4-dioxo-3,4-dihydropyrimidin-1(2H)-yl)-4-fluoro-3-hydroxy-4-methyltetrahydrofuran-2-yl)methoxy)(phenoxy)phosphoryl)amino)propanoate], the “HEV RNA levels” value (sofosbuvir 400 mg per day together with continued ribavirin 800 mg per day, after four weeks, same subject, lower limit of detection about 25 IU/mL) is recorded as under 25 IU/mL.
